One test addresses T1, α-2A adrenergic receptor (Homo sapiens, UniProt P08913).
T1 sequence (P08913 1-465): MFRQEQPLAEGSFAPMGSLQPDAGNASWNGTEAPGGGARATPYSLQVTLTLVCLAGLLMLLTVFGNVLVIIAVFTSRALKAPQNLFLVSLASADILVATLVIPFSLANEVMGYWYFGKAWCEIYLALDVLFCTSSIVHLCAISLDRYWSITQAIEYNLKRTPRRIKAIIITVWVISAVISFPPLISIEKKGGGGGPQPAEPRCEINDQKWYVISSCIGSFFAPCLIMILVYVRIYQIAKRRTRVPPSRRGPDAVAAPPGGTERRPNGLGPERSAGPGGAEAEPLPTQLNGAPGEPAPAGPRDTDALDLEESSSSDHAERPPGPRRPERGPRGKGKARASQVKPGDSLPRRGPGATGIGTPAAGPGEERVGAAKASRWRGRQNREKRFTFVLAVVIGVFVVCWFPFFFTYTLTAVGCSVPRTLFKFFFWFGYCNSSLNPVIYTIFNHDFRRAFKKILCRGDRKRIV
Briefly: Receptor-based pharmacological activity, agonist. The format is biochemical. The following applies: for EC50: read-out: RC50 (EC50). The procedure: (§1) Methods for this study have been previously described (Venn-Watson, S., Lumpkin, R., Dennis, E. A. Efficacy of dietary odd-chain saturated fatty acid pentadecanoic acid parallels broad associated health benefits in humans: could it be essential? Sci Rep 10:8161 (2020)). Significant activities of pentadecanoylcarnitine were those tagged as having maximum pharmacological activities that were greater than or equal to 70% that of the internal control between the concentrations of 1 to 20 μM. Significant pharmacological activities caused by pentadecanoylcarnitine were compared with results from the same assays using pentadecanoic acid (C15:0).

The target of the next test is Serotonin Transporter (Homo sapiens, UniProt P31645). In words: Transporter pharmacological activity, blocker. It counts as biochemical. The conditions noted are these: for IC50: read-out: RC50 (IC50). The protocol:
as §1

Test [1] has as its system peroxisome proliferator-activated receptor (PPAR) α/δ. The conditions noted are these: cited from earlier work.
Test [2] deals with AMP-activated protein kinase (AMPK). The conditions noted are these: cited from earlier work.
In a further test the test system is mitochondrial function. The conditions noted are these: cited from earlier work.
For another test, the system named is red blood cell membranes. The conditions noted are these: cited from earlier work.
The next test concerns breast cancer cells. The following applies: cited from earlier work.
In test [3] the test system is human cell systems mimicking various disease states. The following applies: cited from earlier work.
Test [4] has as its system diet-induced obese mice modeling type 2 diabetes. The conditions noted are these: daily oral, approximately 12 weeks; cited from earlier work.
The test system of test [5] is in vivo model of nonalcoholic fatty liver disease. The following applies: daily supplementation over 11 weeks; cited from earlier work.
The next test relates to 4H cell system. Briefly: Human primary cell phenotypic profiling, 4H cell system (autoimmunity, allergy, asthma). It counts as cell-based. The conditions noted are these: 6.7 μM stated for pentadecanoylcarnitine, NS = not significant. The protocol:
(§2) Methods for this human primary cell phenotypic profiling study were those previously described (Venn-Watson, S., Lumpkin, R., Dennis, E. A. Efficacy of dietary odd-chain saturated fatty acid pentadecanoic acid parallels broad associated health benefits in humans: could it be essential? Sci Rep 10:8161 (2020)). Significant activities of pentadecanoylcarnitine were those that were equal to or greater than 0.1|log 10| at 6.7 μM. Biomarkers with significant changes caused by pentadecanoylcarnitine were compared with results from the same study using pentadecanoic acid (C15:0).

A further test relates to LPS cell system. In words: Human primary cell phenotypic profiling, LPS cell system (chronic inflammation, cardiovascular disease). The format is cell-based. The following applies: 6.7 μM stated for pentadecanoylcarnitine. The procedure: as §2
For the next test, the system named is SAg cell system. Briefly: Human primary cell phenotypic profiling, SAg cell system (chronic inflammation, autoimmune disease). It counts as cell-based. The following applies: 6.7 μM stated for pentadecanoylcarnitine. The protocol: as §2
The test system of a further test is BE3C cell system. In words: Human primary cell phenotypic profiling, BE3C cell system (COPD, lung inflammation). The format is cell-based. The following applies: 6.7 μM stated for pentadecanoylcarnitine. The protocol: as §2
The next test has as its system CASM3C cell system. In words: Human primary cell phenotypic profiling, CASM3C cell system (cardiovascular inflammation, restenosis). The format is cell-based. The conditions noted are these: 6.7 μM stated for pentadecanoylcarnitine. The procedure: as §2
For another test, the system named is HDF3CGF cell system. In words: Human primary cell phenotypic profiling, HDF3CGF cell system (fibrosis, chronic inflammation). It counts as cell-based. The following applies: 6.7 μM stated for pentadecanoylcarnitine. The protocol: as §2
The test system of the next test is KF3CT cell system. In words: Human primary cell phenotypic profiling, KF3CT cell system (dermatitis, psoriasis). It counts as cell-based. The conditions noted are these: 6.7 μM stated for pentadecanoylcarnitine. The procedure: as §2
For a further test, the system named is MyoF cell system. In words: Human primary cell phenotypic profiling, MyoF cell system (wound healing, matrix remodeling, fibrosis). It counts as cell-based. The conditions noted are these: 6.7 μM stated for pentadecanoylcarnitine. The procedure:
as §2

For a further test, the system named is /IMphg cell system. In words: Human primary cell phenotypic profiling, /IMphg cell system (chronic inflammation, restenosis, cardiovascular disease). The format is cell-based. The following applies: 6.7 μM stated for pentadecanoylcarnitine. The protocol:
as §2

The mark [6] stands for this setting: Agonist, positive control UK 14304.
Setting [7] is: Blocker, positive control Clomipramine.

Some results are limits rather than exact numbers.

Sequence of Serotonin Transporter (P31645 whole entry): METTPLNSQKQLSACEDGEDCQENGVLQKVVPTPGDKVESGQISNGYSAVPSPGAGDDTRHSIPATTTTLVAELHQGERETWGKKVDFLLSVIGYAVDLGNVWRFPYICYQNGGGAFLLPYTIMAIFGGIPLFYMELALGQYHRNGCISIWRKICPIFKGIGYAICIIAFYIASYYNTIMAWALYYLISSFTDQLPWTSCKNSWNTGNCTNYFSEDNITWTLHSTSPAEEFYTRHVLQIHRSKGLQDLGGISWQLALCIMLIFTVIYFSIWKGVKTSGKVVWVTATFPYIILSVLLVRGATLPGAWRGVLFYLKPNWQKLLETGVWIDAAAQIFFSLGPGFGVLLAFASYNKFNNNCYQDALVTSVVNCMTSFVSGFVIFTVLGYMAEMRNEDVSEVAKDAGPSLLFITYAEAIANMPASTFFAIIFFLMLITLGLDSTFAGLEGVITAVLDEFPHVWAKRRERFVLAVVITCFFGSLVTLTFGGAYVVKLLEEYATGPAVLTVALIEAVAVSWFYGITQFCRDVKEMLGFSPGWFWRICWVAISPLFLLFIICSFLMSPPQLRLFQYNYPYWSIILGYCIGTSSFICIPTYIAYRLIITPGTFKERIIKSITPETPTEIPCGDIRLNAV

Take `CCCCCCCCCCCCCCC(=O)O` [Pentadecanoic acid (C15:0), Pentadecanoic acid]: the Emax on α-2A adrenergic receptor (Agonist, positive control UK 14304, 1 to 20 μM, read-out: Max Response (%) Compared to Positive Control) came to 22%. Further, the EC50 on α-2A adrenergic receptor (setting [6]) is > 20 µM. The IC50 at Serotonin Transporter (setting [7]) was > 20 µM. The Emax at Serotonin Transporter (read-out: Max Response (%) Compared to Positive Control) worked out at 1%. Further, the “PPAR α/δ agonist activity” value in test [1] is listed as “dual, partial”. In addition, the AMPK activity result in test [2] is reported as “activator”. For the same compound, the “Effect on mitochondrial function” value with mitochondrial function is given as “repair”. Also, the “Effect on stability of red blood cell membranes” value in the test on red blood cell membranes was “improve”. Moreover, the “Effect on proliferation of breast cancer cells” value in the test on breast cancer cells is on record as “decrease”. The “Properties in human cell systems mimicking various disease states” value in test [3] was “anti-inflammatory and antifibrotic properties”. In test [4], the “Body weight gain compared to non-supplemented controls” value is on record as “lower”, the “Cholesterol compared to non-supplemented controls” value is recorded as “lower”, the “Glucose compared to non-supplemented controls” value was “lower” and the “Pro-inflammatory cytokines compared to non-supplemented controls” value is “lower”. Also, in [5], the Anemia result is recorded as “attenuated”, the Cholesterol result is on record as “lowered”, the Inflammation result is “lowered” and the Liver fibrosis result is “attenuated”. For the same compound, in [5], the Triglycerides entry is “lowered”.
Regarding `CCCCCCCCCCCCCCC(=O)O[C@H](CC(=O)[O-])C[N+](C)(C)C` [Pentadecanoylcarnitine, pentadecanoylcarnitine], the VEGFR2 biomarker change in the test on 4H cell system is listed as −0.11 log 10. The “Tissue Factor biomarker change” value in the test with LPS cell system is on record as “+0.11 log 10”. In the test on SAg cell system, the “B-Cell Proliferation change” value is −0.17 log 10 and the E-Selectin biomarker change was −0.11 log 10. Further, in the test on BE3C cell system, the CXCL8/IL-8 biomarker change is listed as −0.21 log 10, the CXCL9/MIG biomarker change is reported as −0.60 log 10, the CXCL10/IP-10 biomarker change is recorded as −0.10 log 10 and the CXCL11/I-TAC biomarker change is on record as −0.54 log 10. For the same compound, in the test on BE3C cell system, the HLA-DR biomarker change is −0.63 log 10, the IL-1a biomarker change is reported as −0.19 log 10, the MMP-1 biomarker change is on record as −0.27 log 10 and the MMP-9 biomarker change is −0.34 log 10. For the same compound, in the test on BE3C cell system, the PAI-1 biomarker change is −0.24 log 10, the tPA biomarker change was −0.43 log 10, the uPA biomarker change is on record as −0.28 log 10 and the uPAR biomarker change was −0.12 log 10. The Proliferation change result with CASM3C cell system is given as “+0.10 log 10”. For the same compound, the MMP-1 biomarker change in the test with HDF3CGF cell system is reported as −0.12 log 10. Also, the CXCL10/IP-10 biomarker change in the test on KF3CT cell system was −0.10 log 10. The “α-SM Actin biomarker change” value in the test on MyoF cell system is −0.26 log 10. In addition, in the test with /IMphg cell system, the MCP-1 biomarker change was −0.25 log 10 and the sIL-10 biomarker change is −0.13 log 10. In addition, on α-2A adrenergic receptor (Agonist, positive control UK 14304, 1 to 20 μM), the “Max Response (%) Compared to Positive Control” value was determined as 105%. Also, the EC50 at α-2A adrenergic receptor (setting [6]) amounted to 5.9 µM. For the same compound, the “Pharmacological activity at α-2A adrenergic receptor” value on α-2A adrenergic receptor (at approximately 1 to 20 μM) is on record as “agonist”. Also, the “Max Response (%) Compared to Positive Control” value at Serotonin Transporter (Blocker, positive control Clomipramine, 1 to 20 μM) turned out to be 83%. Also, the IC50 on Serotonin Transporter (setting [7]) came to 7.4 µM. On Serotonin Transporter (at approximately 1 to 20 μM), the “Pharmacological activity at SERT” value is given as “blocker”.
